Test results reported in US8324133B2, “Fungicide 2-pyridyl-methylene-carboxamide derivatives” (Bayer Cropscience AG, priority 2005, dated 2012).

Test: logP by HPLC on reversed-phase column (C 18), EEC Directive 79/831 Annex V.A8
Type: physicochemical
Conditions: C 18, 40° C., 0.1% aqueous formic acid and acetonitrile gradient
Protocol: Temperature: 40° C.; Mobile phases: 0.1% aqueous formic acid and acetonitrile; linear gradient from 10% acetonitrile to 90% acetonitrile.
Calibration was carried out using unbranched alkan-2-ones (comprising 3 to 16 carbon atoms) with known logP values (determination of the logP values by the retention times using linear interpolation between two successive alkanones).

Compound	LogP
O=C(c1ccco1)N(Cc1ncc(C(F)(F)F)cc1Cl)C1CC1 [Compound 1]	3.2
CC(c1ncc(C(F)(F)F)cc1Cl)N(C(=O)c1ccco1)C1CC1 (centres unmarked) [Compound 2]	3.6
Cc1ccoc1C(=O)N(Cc1ncc(C(F)(F)F)cc1Cl)C1CC1 [Compound 3]	3.78
Cc1ccoc1C(=O)N(C1CC1)C(C)c1ncc(C(F)(F)F)cc1Cl (centres unmarked) [Compound 4]	4.22
Cc1cc(C(=O)N(Cc2ncc(C(F)(F)F)cc2Cl)C2CC2)c(C(F)(F)F)o1 [Compound 6]	4.26
Cc1cc(C(=O)N(C2CC2)C(C)c2ncc(C(F)(F)F)cc2Cl)c(C(F)(F)F)o1 (centres unmarked) [Compound 7]	5.19
Cc1occc1C(=O)N(Cc1ncc(C(F)(F)F)cc1Cl)C1CC1 [Compound 8]	3
CC(c1ncc(C(F)(F)F)cc1Cl)N(C(=O)c1sccc1I)C1CC1 (centres unmarked) [Compound 12]	5.09
O=C(c1ccsc1I)N(Cc1ncc(C(F)(F)F)cc1Cl)C1CC1 [Compound 15]	4.17
CC(c1ncc(C(F)(F)F)cc1Cl)N(C(=O)c1ccsc1I)C1CC1 (centres unmarked) [Compound 16]	4.95
Cn1cc(C(=O)N(Cc2ncc(C(F)(F)F)cc2Cl)C2CC2)c(C(F)(F)F)c1 [Compound 17]	3.55
Cc1ncoc1C(=O)N(Cc1ncc(C(F)(F)F)cc1Cl)C1CC1 [Compound 20]	2.85
Cc1ncoc1C(=O)N(C1CC1)C(C)c1ncc(C(F)(F)F)cc1Cl (centres unmarked) [Compound 21]	3.22
Cc1nc(C(=O)N(Cc2ncc(C(F)(F)F)cc2Cl)C2CC2)c(C)o1 [Compound 22]	3.11
Cc1nc(C(=O)N(C2CC2)C(C)c2ncc(C(F)(F)F)cc2Cl)c(C)o1 (centres unmarked) [Compound 23]	3.46
Cc1nc(C(F)(F)F)c(C(=O)N(Cc2ncc(C(F)(F)F)cc2Cl)C2CC2)s1 [Compound 25]	3.86
Cc1nc(C(F)F)c(C(=O)N(Cc2ncc(C(F)(F)F)cc2Cl)C2CC2)s1 [Compound 26]	3.41
Cc1nc(C(F)F)c(C(=O)N(C2CC2)C(C)c2ncc(C(F)(F)F)cc2Cl)s1 (centres unmarked) [Compound 27]	4.34
Cc1ncc(C(=O)N(Cc2ncc(C(F)(F)F)cc2Cl)C2CC2)s1 [Compound 29]	3.15
Cc1nc(C(F)(F)F)c(C(=O)N(C2CC2)C(C)c2ncc(C(F)(F)F)cc2Cl)s1 (centres unmarked) [Compound 30]	4.80
Cc1cc(C(=O)N(C2CC2)C(C)c2ncc(C(F)(F)F)cc2Cl)nn1C (centres unmarked) [Compound 33]	3.15
CC(c1ncc(C(F)(F)F)cc1Cl)N(C(=O)c1cn(C)nc1C(F)F)C1CC1 (centres unmarked) [Compound 35]	3.78
Cn1cc(C(=O)N(Cc2cc(C(F)(F)F)cc(Cl)n2)C2CC2)c(C(F)F)n1 [Compound 37]	3.1
COc1nn(C)cc1C(=O)N(Cc1ncc(C(F)(F)F)cc1Cl)C1CC1 [Compound 39]	2.43

Compound	LogP
Cn1cc(C(=O)N(Cc2ncc(C(F)(F)F)cc2Cl)C2CC2)c(C(F)(F)F)n1 [Compound 41]	3.26
CC(c1ncc(C(F)(F)F)cc1Cl)N(C(=O)c1cn(C)nc1C(F)(F)F)C1CC1 (centres unmarked) [Compound 42]	4.01
Cn1cc(C(=O)N(Cc2ncc(C(F)(F)F)cc2Cl)C2CC2)c(I)n1 [Compound 43]	2.82
Cc1nn(C)c(F)c1C(=O)N(C1CC1)C(C)c1ncc(C(F)(F)F)cc1Cl (centres unmarked) [Compound 46]	3.67
CCC(c1cc(C(F)(F)F)cc(Cl)n1)N(C(=O)c1c(C)nn(C)c1F)C1CC1 (centres unmarked) [Compound 47]	2.95
COC(=O)C(c1ncc(C(F)(F)F)cc1Cl)N(C(=O)c1c(C)nn(C)c1F)C1CC1 (centres unmarked) [Compound 48]	2.83
Cc1nn(C)cc1C(=O)N(Cc1ncc(C(F)(F)F)cc1Cl)C1CC1 [Compound 55]	2.53
Cc1nn(C)cc1C(=O)N(C1CC1)C(C)c1ncc(C(F)(F)F)cc1Cl (centres unmarked) [Compound 56]	2.79
Cn1ncc(C(=O)N(Cc2ncc(C(F)(F)F)cc2Cl)C2CC2)c1Cl [Compound 57]	3.92
CCn1nc(C)c(C(=O)N(Cc2ncc(C(F)(F)F)cc2Cl)C2CC2)c1F [Compound 58]	3.15
CCc1nn(C)c(F)c1C(=O)N(Cc1ncc(C(F)(F)F)cc1Cl)C1CC1 [Compound 59]	3.11
CCOc1nn(C)cc1C(=O)N(Cc1ncc(C(F)(F)F)cc1Cl)C1CC1 [Compound 60]	2.75
O=C(c1ccnn1-c1ccccc1)N(Cc1ncc(C(F)(F)F)cc1Cl)C1CC1 [Compound 63]	3.55
Cc1cc(C(=O)N(Cc2ncc(C(F)(F)F)cc2Cl)C2CC2)no1 [Compound 64]	3.32
Cc1cc(C(=O)N(C2CC2)C(C)c2ncc(C(F)(F)F)cc2Cl)no1 (centres unmarked) [Compound 65]	3.63
Cc1noc(C)c1C(=O)N(Cc1ncc(C(F)(F)F)cc1Cl)C1CC1 [Compound 68]	3
Cc1onc(-c2ccc(Cl)cc2)c1C(=O)N(Cc1ncc(C(F)(F)F)cc1Cl)C1CC1 [Compound 69]	4.48
O=C(c1ccno1)N(Cc1ncc(C(F)(F)F)cc1Cl)C1CC1 [Compound 71]	3.72
Cn1cc(C(=O)N(Cc2ncc(C(F)(F)F)cc2Cl)C2CCCC2)c(C(F)F)n1 [Compound 79]	3.68
COc1nn(C)cc1C(=O)N(Cc1ncc(C(F)(F)F)cc1Cl)C1CCCC1 [Compound 80]	3.32
Cc1nc(C(F)F)c(C(=O)N(Cc2ncc(C(F)(F)F)cc2Cl)C2CCCC2)s1 [Compound 81]	4.25
Cn1cc(C(=O)N(Cc2ncc(C(F)(F)F)cc2Cl)C2CCCC2)c(C(F)(F)F)c1 [Compound 82]	4.15
Cc1cc(C(=O)N(Cc2ncc(C(F)(F)F)cc2Cl)C2CC(C)CC(C)(C)C2)c(C)o1 (centres unmarked) [Compound 83]	5.9
